# ChEMBL document CHEMBL5712891, “Inhibition of BET bromodomain-dependent XIAP and FLIP expression sensitizes KRAS-mutated NSCLC to pro-apoptotic agents” (Cell Death Dis, 2016)
# The source made the active and inactive calls. The rule behind the calls is not given here.
# Columns and labels:
# DV-90 [1] = experiment: Induction of cell cycle arrest in human DV-90 cells assessed as accumulation of cells at G2/M phase at 0.25 uM for 24 hrs by Click-iT EdU Alexa Fluor 647 flow cytometric assay kit analysis (reference value: 24%); assay type: functional
# A549 [2] = experiment: Induction of cell cycle arrest in human A549 cells assessed as accumulation of cells at S phase at 0.25 uM for 24 hrs by Click-iT EdU Alexa Fluor 647 flow cytometric assay kit analysis (reference value: 35%); assay type: functional
# DV-90 [3] = experiment: Induction of apoptosis in human DV-90 cells assessed as early apoptotic cells at 0.5 uM for 24 hrs by annexin V-PI staining based flow cytometric analysis (reference value: 1.7%); assay type: functional
# A549 [4] = experiment: Induction of cell cycle arrest in human A549 cells assessed as accumulation of cells at G0/G1 phase at 0.5 uM for 24 hrs by Click-iT EdU Alexa Fluor 647 flow cytometric assay kit analysis (reference value: 61%); assay type: functional
# A549 [5] = experiment: Antitumor activity against human A549 cells assessed as test to control tumor ratio at 80 mg/kg, ip for 28 days relative to control; assay type: functional; conditions: time 28 day
# NCI-H1373 [6] = experiment: Induction of apoptosis in human NCI-H1373 cells assessed as viable cells at 2.5 uM for 24 hrs by annexin V-PI staining based flow cytometric analysis (reference value: 77.7%); assay type: functional; conditions: read-out: Activity
# A549 [7] = experiment: Antitumor activity against human A549 cells assessed as test to control tumor ratio administered at 80 mg/kg, ip for 7 days along with cisplatin for 5 days follwed by compound treatment for 14 days relative to control; assay type: functional; conditions: time 7 day
# NCI-H460 [8] = experiment: Downregulation of FLIP mRNA expression level in human NCI-H460 cells at 0.1 to 1 uM for 24 hrs by qRT-PCR analysis; assay type: functional, cell-based; conditions: dose 0.1-1 µM
# NCI-H1373 [9] = experiment: Downregulation of c-MYC protein level in human NCI-H1373 cells 1 uM by Western blot analysis; assay type: functional, cell-based; conditions: time <= 24.0 hrs, TDE = time-dependent effect
# NCI-H1792 = experiment: Downregulation of FLIP mRNA expression level in human NCI-H1792 cells at 0.1 to 1 uM for 24 hrs by qRT-PCR analysis; assay type: functional, cell-based; conditions: dose 0.1-1 µM
# NCI-H460 [10] = experiment: Antiproliferative activity against human NCI-H460 cells at 500 to 2500 nM in presence of TNF by cell titre glo assay; assay type: functional, cell-based; conditions: dose 500-2500 nM
# A549 [11] = experiment: Induction of apoptosis in human A549 cells assessed as viable cells at 1 uM in presence of cisplatin by annexin V-PI based flow cytometric analysis (reference value: 95.7%); assay type: functional; conditions: read-out: Activity
# [12] = Toxicity in SCID mouse xenografted with human NCI-H1373 cells assessed as body weight loss at 50 mg/kg, ip measured on after 15 days relative to control; assay type: organism-based; conditions: in vivo, 360 h, time 15 day
# DV-90 [13] = experiment: Downregulation of XIAP protein expression level in human DV-90 cells at 1 uM for 24 hrs by […] analysis; assay type: functional, cell-based
# NCI-H2030 = experiment: Downregulation of XIAP mRNA expression level in human NCI-H2030 cells at 0.1 to 1 uM for 24 hrs by qRT-PCR analysis; assay type: functional, cell-based; conditions: dose 0.1-1 µM
# NCI-H460 [14] = experiment: Induction of apoptosis in human NCI-H460 cells assessed as viable cells at 0.5 uM for 24 hrs by annexin V-PI staining based flow cytometric analysis (reference value: 94%); assay type: functional; conditions: read-out: Activity
# DV-90 [15] = experiment: Induction of cell cycle arrest in human DV-90 cells assessed as accumulation of cells at G2/M phase at 0.5 uM for 24 hrs by Click-iT EdU Alexa Fluor 647 flow cytometric assay kit analysis (reference value: 24%); assay type: functional
# NCI-H460 [16] = experiment: Downregulation of XIAP mRNA expression level in human NCI-H460 cells at 0.1 to 1 uM for 24 hrs by qRT-PCR analysis; assay type: functional, cell-based; conditions: dose 0.1-1 µM
# NCI-H441 = experiment: Downregulation of c-MYC mRNA expression level in human NCI-H441 cells at 0.1 to 1 uM for 24 hrs by qRT-PCR analysis; assay type: functional, cell-based; conditions: dose 0.1-1 µM
# NCI-H1373 [17] = experiment: Induction of apoptosis in human NCI-H1373 cells assessed as late apoptotic cells at 2.5 uM for 24 hrs by annexin V-PI staining based flow cytometric analysis (reference value: 16.2%); assay type: functional
# A549 [18] = experiment: Induction of cell cycle arrest in human A549 cells assessed as accumulation of cells at G2/M phase at 0.25 uM for 24 hrs by Click-iT EdU Alexa Fluor 647 flow cytometric assay kit analysis (reference value: 3%); assay type: functional
# A549 [19] = experiment: Induction of apoptosis in human A549 cells assessed as viable cells at 2.5 uM for 24 hrs by annexin V-PI staining based flow cytometric analysis (reference value: 97.7%); assay type: functional; conditions: read-out: Activity
# NCI-H460 [20] = experiment: Induction of apoptosis in human NCI-H460 cells assessed as necrotic cells at 0.5 uM for 24 hrs by annexin V-PI staining based flow cytometric analysis (reference value: 3.2%); assay type: functional
# NCI-H460 [21] = experiment: Induction of apoptosis in human NCI-H460 cells assessed as late apoptotic cells at 2.5 uM for 24 hrs by annexin V-PI staining based flow cytometric analysis (reference value: 3.7%); assay type: functional
# NCI-H460 [22] = experiment: Induction of apoptosis in human NCI-H460 cells assessed as viable cells at 0.5 uM for 24 hrs by annexin V-PI staining based flow cytometric analysis (reference value: 92.8%); assay type: functional; conditions: read-out: Activity
# NCI-H460 [23] = experiment: Induction of apoptosis in human NCI-H460 cells assessed as early apoptotic cells at 2.5 uM for 24 hrs by annexin V-PI staining based flow cytometric analysis (reference value: 0.3%); assay type: functional
# DV-90 [24] = experiment: Induction of apoptosis in human DV-90 cells assessed as viable cells at 2.5 uM for 48 hrs by annexin V-PI staining based flow cytometric analysis (reference value: 81.9%); conditions: DV-90, 48 h
# NCI-H1373 [25] = experiment: Induction of apoptosis in human NCI-H1373 cells assessed as viable cells at 2.5 uM for 24 hrs by annexin V-PI staining based flow cytometric analysis (reference value: 71.6%); assay type: functional; conditions: read-out: Activity
# A549 [26] = experiment: Induction of apoptosis in human A549 cells assessed as late apoptotic cells at 0.5 uM for 24 hrs by annexin V-PI staining based flow cytometric analysis (reference value: 1.2%); assay type: functional
# DV-90 [27] = experiment: Induction of cell cycle arrest in human DV-90 cells assessed as accumulation of cells at S phase at 0.1 uM for 24 hrs by Click-iT EdU Alexa Fluor 647 flow cytometric assay kit analysis (reference value: 30%); assay type: functional
# NCI-H1373 [28] = experiment: Induction of cell cycle arrest in human NCI-H1373 cells assessed as accumulation of cells at G0/G1 phase at 1 uM for 24 hrs by Click-iT EdU Alexa Fluor 647 flow cytometric assay kit analysis (reference value: 45%); assay type: functional
# DV-90 [29] = experiment: Induction of cell cycle arrest in human DV-90 cells assessed as accumulation of cells at G0/G1 phase at 0.1 uM for 24 hrs by Click-iT EdU Alexa Fluor 647 flow cytometric assay kit analysis (reference value: 45%); assay type: functional
# NCI-H1373 [30] = experiment: Induction of cell cycle arrest in human NCI-H1373 cells assessed as accumulation of cells at G0/G1 phase at 0.1 uM for 24 hrs by Click-iT EdU Alexa Fluor 647 flow cytometric assay kit analysis (reference value: 48%); assay type: functional
smiles,measurement,setting,value
Cc1sc2c(c1C)C(c1ccc(Cl)cc1)=N[C@@H](CC(=O)OC(C)(C)C)c1nnc(C)n1-2,Activity,DV-90 [1],31%
same,Activity,A549 [2],33%
same,Activity,DV-90 [3],2.6%
same,Activity,A549 [4],63%
same,T/C,A549 [5],60%
same,viability at 2.5 µM,NCI-H1373 [6],58%
same,T/C,A549 [7],41%
same,Activity,NCI-H460 [8],Active
same,Activity,NCI-H1373 [9],Tde
same,Activity,NCI-H1792,Active
same,Activity,NCI-H460 [10],Active
same,viability at 1 µM,A549 [11],58.9%
same,Activity,[12],5%
same,Activity,DV-90 [13],Active
same,Activity,NCI-H2030,Active
same,viability at 0.5 µM,NCI-H460 [14],91.2%
same,Activity,DV-90 [15],30%
same,Activity,NCI-H460 [16],Active
same,Activity,NCI-H441,Active
same,Activity,NCI-H1373 [17],21.9%
same,Activity,A549 [18],3%
Cc1sc2c(c1C)C(c1ccc(Cl)cc1)=N[C@@H](CC(=O)Nc1ccc(O)cc1)c1nnc(C)n1-2 [BIRABRESIB],viability at 2.5 µM,A549 [19],97.3%
same,Activity,NCI-H460 [20],4.7%
same,Activity,NCI-H460 [21],5.1%
same,viability at 0.5 µM,NCI-H460 [22],90.6%
same,Activity,NCI-H460 [23],0.6%
same,viability at 2.5 µM,DV-90 [24],49.4%
same,viability at 2.5 µM,NCI-H1373 [25],56.2%
same,Activity,A549 [26],1.1%
CCNC(=O)C[C@@H]1N=C(c2ccc(Cl)cc2)c2cc(OC)ccc2-n2c(C)nnc21 [MOLIBRESIB],Activity,DV-90 [27],27%
same,Activity,NCI-H1373 [28],50%
same,Activity,DV-90 [29],46%
same,Activity,NCI-H1373 [30],47%
